Source: patent US11414424B2, “Cardiac sarcomere inhibitors” (Cytokinetics, Inc., priority 2018, dated 2022)

System: bovine cardiac myofibrils
Test: Myofibril assay: PK/LDH-coupled steady-state ATPase activity of skinned bovine cardiac myofibrils
Type: biochemical
Details: Ca2+ activating to 75% of maximal rate
In short: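 Steady-state ATPase of detergent-skinned bovine left-ventricular myofibrils (1 mg/mL), PK/LDH-coupled NADH read at 340 nm, in PIPES/MgCl2 buffer pH 6.8 with 50 μM ATP, 0.6 mM EGTA and CaCl2 set for 50% or 75% activation. Inhibition of activity measured.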

| CDMF75 IC15 | Compound |
| --- | --- |
| 5.9 µM | CC(C)N1CC(=O)N(Cc2ccc(Cl)cc2)C(c2ccc(F)cc2)C1=O (stereo not shown) [Compound 311, 4-(4-chlorobenzyl)-3-(4-fluorophenyl)-1-isopropylpiperazine-2,5-dione] |
| 4.9 µM | CC(C)N1CC(=O)N(Cc2ccc(Cl)cc2)C(c2cccc(Cl)c2)C1=O (stereo not shown) [Compound 312, 4-(4-chlorobenzyl)-3-(3-chlorophenyl)-1-isopropylpiperazine-2,5-dione] |
| 3.9 µM | COc1ccc(C2C(=O)N(C(C)C)CC(=O)N2Cc2ccc(Cl)cc2)cc1 (stereo not shown) [Compound 313, 4-(4-chlorobenzyl)-1-isopropyl-3-(4-methoxy-phenyl)piperazine-2,5-dione] |
| 8.4 µM | CC(C)N1CC(=O)N(Cc2ccc(Cl)cc2)C(c2ccc(C(F)(F)F)cc2)C1=O (stereo not shown) [Compound 314, 4-(4-chlorobenzyl)-1-isopropyl-3-(4-(trifluoro-methyl)phenyl)piperazine-2,5-dione] |
| 28.9 µM | CC(C)N1CC(=O)N(Cc2ccc(C(F)(F)F)cn2)C(c2ccc(Cl)cc2)C1=O (stereo not shown) [Compound 315, 3-(4-chlorophenyl)-1-isopropyl-4-((5-(trifluoromethyl)pyridin-2-yl)methyl)piperazine-2,5-dione] |
| 14.3 µM | CC(C)N1CC(=O)N(Cc2ccc(Cl)cc2)C(C)(c2ccc(Cl)cc2)C1=O (stereo not shown) [Compound 316, 4-(4-chlorobenzyl)-3-(4-chlorophenyl)-1-isopropyl-3-methylpiperazine-2,5-dione] |
| 2.3 µM | CC(C)N1CC(=O)N(Cc2ccc(Cl)cc2)C2(Cc3ccccc3C2)C1=O [Compound 317, 1′-(4-chlorobenzyl)-4′-isopropyl-1,3-dihydrospiro[indene-2,2′-piperazine]-3′,6′-dione] |
| 7.3 µM | CC(C)N1CC(=O)N(Cc2ccc(Cl)cc2)C2(CC(c3ccccc3)C2)C1=O (stereo not shown) [Compound 318, 5-(4-chlorobenzyl)-8-isopropyl-2-phenyl-5,8-diazaspiro[3.5]nonane-6,9-dione] |
| 24.0 µM | CC(C)N1CC(=O)N(Cc2ccc(C(F)(F)F)cc2)C2(CCc3ccccc32)C1=O (stereo not shown) [Compound 319, 4′-isopropyl-1′-(4-(trifluoromethyl)benzyl)-2,3-dihydrospiro[indene-1,2′-piperazine]-3′,6′-dione] |
| 22.1 µM | CNC(=O)N1CC2(C1)C(=O)N([C@H]1CC[C@@H](C#N)C1)CC(=O)N2Cc1ccc(C(F)(F)F)cc1 [Compound 321, 8-((1S,3R)-3-cyano-cyclopentyl)-N-methyl-6,9-dioxo-5-(4-(trifluoromethyl)benzyl)-2,5,8-triazaspiro[3.5]-nonane-2-carboxamide] |
| 10.8 µM | CC(=O)N1CC2(C1)C(=O)N([C@H]1CC[C@H](C)CC1)CC(=O)N2Cc1ccc(C(F)(F)F)cc1 [Compound 322, 2-acetyl-8-((1r,4r)-4-methylcyclohexyl)-5-(4-(trifluoromethyl)benzyl)-2,5,8-triazaspiro[3.5]-nonane-6,9-dione] |
| 6.4 µM | CCC1CCC(N2CC(=O)N(Cc3ccc(C(F)(F)F)cc3)C3(CN(C(C)=O)C3)C2=O)CC1 (stereo not shown) [Compound 323, 2-acetyl-8-(4-ethylcyclo-hexyl)-5-(4-(trifluoro-methyl)benzyl)-2,5,8-triazaspiro[3.5]nonane-6,9-dione] |
| 11.5 µM | CC(=O)N1CC2(C1)C(=O)N(C1CCC(C(F)F)CC1)CC(=O)N2Cc1ccc(C(F)(F)F)cc1 (stereo not shown) [Compound 324, 2-acetyl-8-(4-(difluoro-methyl)cyclohexyl)-5-(4-(trifluoromethyl)benzyl)-2,5,8-triazaspiro[3.5]-nonane-6,9-dione] |
| 22.8 µM | CC(=O)N1CC2(C1)C(=O)N([C@H]1CC[C@H](C#N)CC1)CC(=O)N2Cc1ccc(C(F)(F)F)cc1 [Compound 325, (1r,4r)-4-(2-acetyl-6,9-dioxo-5-(4-(trifluoromethyl)benzyl)-2,5,8-triazaspiro[3.5]nonan-8-yl)cyclohexane-l-carbonitrile] |
| 23.7 µM | CC(=O)N1CC2(C1)C(=O)N(C1CCCCCC1)CC(=O)N2Cc1ccc(C(F)(F)F)cc1 [Compound 326, 2-acetyl-8-cycloheptyl-5-(4-(trifluoromethyl)benzyl)-2,5,8-triazaspiro[3.5]-nonane-6,9-dione] |
| 9.8 µM | CC(C)N1CC(=O)N(Cc2ccc(C(F)(F)F)cc2)C2(CCN(c3ccccc3)C2=O)C1=O (stereo not shown) [Compound 327, 9-isopropyl-2-phenyl-6-(4-(trifluoromethyl)benzyl)-2,6,9-triazaspiro[4.5]decane-1,7,10-trione] |

| CDMF75 IC15 | Compound |
| --- | --- |
| 19.3 µM | CC(C)N1CC(=O)N([C@@H](C)c2ccc(C(F)(F)F)cc2)C2(CN(c3ccccc3)C2)C1=N [Compound 328, (S)-9-imino-8-isopropyl-2-phenyl-5-(1-(4-(trifluoromethyl)phenyl)ethyl)-2,5,8-triazaspiro[3.5]nonan-6-one] |
| 9.3 µM | CC(C)N1C(=O)C2(CN(c3ccccc3)C2)N(Cc2ccc(Cl)cc2)C(=O)C1C (stereo not shown) [Compound 329, 5-(4-chlorobenzyl)-8-isopropyl-7-methyl-2-phenyl-2,5,8-triazaspiro-[3.5]nonane-6,9-dione] |
| 10.7 µM | CC(C)N1CC(=O)N(Cc2ccc(Cl)cc2)C2(CCN(c3cnn(C)c3)C2=O)C1=O (stereo not shown) [Compound 330, 6-(4-chlorobenzyl)-9-isopropyl-2-(1-methyl-1H-pyrazol-4-yl)-2,6,9-triazaspiro[4.5]decane-1,7,10-trione] |
| 30.9 µM | CC(C)N1CC(=O)N(Cc2ccc(Cl)cc2)C2(CC(=O)N(c3ccccc3)C2)C1=O (stereo not shown) [Compound 331, 6-(4-chlorobenzyl)-9-isopropyl-2-phenyl-2,6,9-triazaspiro[4.5]decane-3,7,10-trione] |
| 16.6 µM | CC(C)N1CC(=O)N(Cc2ccc(Cl)cc2)C2(CC(=O)N(c3ccccn3)C2)C1=O (stereo not shown) [Compound 332, 6-(4-chlorobenzyl)-9-isopropyl-2-(pyridin-2-yl)-2,6,9-triazaspiro[4.5]decane-3,7,10-trione] |
| 16.6 µM | Cc1cc(N2CCC3(C2=O)C(=O)N(C(C)C)CC(=O)N3Cc2ccc(Cl)cc2)ccn1 (stereo not shown) [Compound 333, 6-(4-chlorobenzyl)-9-isopropyl-2-(2-methyl-pyridin-4-yl)-2,6,9-triazaspiro[4.5]decane-1,7,10-trione] |
| 8.0 µM | CNC(=O)N1CCC2(C1)C(=O)N(Cc1ccc(OC)cc1)CC(=O)N2Cc1ccc(Cl)cc1 (stereo not shown) [Compound 334, 6-(4-chlorobenzyl)-9-(4-methoxybenzyl)-N-methyl-7,10-dioxo-2,6,9-triazaspiro[4.5]decane-2-carboxamide] |
| 12.2 µM | CNC(=O)N1CC2(C1)C(=O)N(Cc1ccc(C(F)(F)F)cc1)CC(=O)N2Cc1ccc(C(F)(F)F)cc1 [Compound 335, N-methyl-6,9-dioxo-5,8-bis(4-(trifluoromethyl)benzyl)-2,5,8-triazaspiro[3.5]nonane-2-carboxamide] |
| 1.1 µM | CNC(=O)N1CC2(C1)C(=O)N(Cc1ccc(C#N)cc1)CC(=O)N2Cc1ccc(C(F)(F)F)cc1 [Compound 336, 8-(4-cyanobenzyl)-N-methyl-6,9-dioxo-5-(4-(trifluoromethyl)benzyl)-2,5,8-triazaspiro[3.5]nonane-2-carboxamide] |
| 1.63 µM | CNC(=O)N1CC2(C1)C(=O)N(Cc1ccc(Cl)cc1)CC(=O)N2Cc1ccc(C(F)(F)F)cc1 [Compound 337, 8-(4-chlorobenzyl)-N-methyl-6,9-dioxo-5-(4-(trifluoromethyl)benzyl)-2,5,8-triazaspiro[3.5]-nonane-2-carboxamide] |
| 1.51 µM | CNC(=O)N1CC2(C1)C(=O)N(C(C)c1ccc(C#N)cc1)CC(=O)N2Cc1ccc(C(F)(F)F)cc1 (stereo not shown) [Compound 338, 8-(1-(4-cyanophenyl)ethyl)-N-methyl-6,9-dioxo-5-(4-(trifluoromethyl)benzyl)-2,5,8-triazaspiro[3.5]nonane-2-carboxamide] |
| 0.7 µM | CC(=O)N1CC2(C1)C(=O)N(c1ccc(Cl)cc1F)CC(=O)N2[C@@H](C)c1ccc(C(F)(F)F)cc1 [Compound 340, (S)-2-acetyl-8-(4-chloro-2-fluorophenyl)-5-(1-(4-(trifluoromethyl)phenyl)-ethyl)-2,5,8-triazaspiro-[3.5]nonane-6,9-dione] |
| 5.4 µM | CC(=O)N1CC2(C1)C(=O)N(c1ccc(Cl)cc1F)C(C)C(=O)N2Cc1ccc(C(F)(F)F)cc1 (stereo not shown) [Compound 341, 2-acetyl-8-(4-chloro-2-fluorophenyl)-7-methyl-5-(4-(trifluoromethyl)benzyl)-2,5,8-triazaspiro[3.5]nonane-6,9-dione] |
| 26.4 µM | COCC1C(=O)N(Cc2ccc(Cl)cc2)C2(CN(c3ccc(C#N)cn3)C2)C(=O)N1C(C)C (stereo not shown) [Compound 347, 6-(5-(4-chlorobenzyl)-8-isopropyl-7-(methoxymethyl)-6,9-dioxo-2,5,8-triazaspiro[3.5]nonan-2-yl)nicotinonitrile] |
| 0.7 µM | N#Cc1ccc(N2CCC3(C2)C(=O)N(c2ccc([N+](=O)[O-])cc2)CC(=O)N3Cc2ccc(Cl)cc2)nc1 (stereo not shown) [Compound 348, 6-(6-(4-chlorobenzyl)-9-(4-nitrophenyl)-7,10-dioxo-2,6,9-triazaspiro[4.5]decan-2-yl)nicotinonitrile] |
| 5.5 µM | N#Cc1ccc(N2CC3(C2)C(=O)N(c2ccccc2)CC(=O)N3Cc2ccc(C(F)(F)F)cc2)nc1 [Compound 350, 6-(6,9-dioxo-8-phenyl-5-(4-(trifluoromethyl)benzyl)-2,5,8-triazaspiro[3.5]nonan-2-yl)nicotinonitrile] |

| Compound | CDMF75 IC15 |
| --- | --- |
| CNC(=O)N1CC2(C1)C(=O)N(C(C)CC#N)CC(=O)N2Cc1ccc(C(F)(F)F)cc1 (stereo not shown) [Compound 320, 8-(1-cyanopropan-2-yl)-N-methyl-6,9-dioxo-5-(4-(trifluoromethyl)benzyl)-2,5,8-triazaspiro[3.5]nonane-2-carboxamide] | 17.8 µM |
| CNC(=O)N1CCC2(C1)C(=O)N(c1ccc([N+](=O)[O-])cc1)CC(=O)N2Cc1ccc(Cl)cc1 (stereo not shown) [Compound 349, 6-(4-chlorobenzyl)-N-methyl-9-(4-nitrophenyl)-7,10-dioxo-2,6,9-triazaspiro[4.5]decane-2-carboxamide] | 0.9 µM |
